# Read-outs that look alike come from different tables or passages of the source.
# Experiments:
# [1] = Storage stability determination of upadacitinib cocrystals (open dish, 40° C./75% RH); assay type: physicochemical; parameters: reference not given here; details: chemical purity after storage in open dish at 40° C./75% RH up to one month
# Protocol: A storage stability study was performed to determine the short term stability for each of the five upadacitinib cocrystals disclosed herein. Samples of each upadacitinib cocrystal were stored in an open dish at 40° C./75% relative humidity (RH) for up to one month.
# [2] = Aqueous solubility determination of upadacitinib cocrystals; assay type: physicochemical; details: aqueous solubility in water at 37° C., equilibrated by end-over-end tumbling for up to 24 hours
# Protocol: A solubility study was performed to determine the aqueous solubility for five of the upadacitinib cocrystals disclosed herein. Sufficiently sized samples of the solid cocrystals were added to individual vials along with a measured volume of water. The water-cocrystal mixtures were equilibrated at 37° C. by end-over-end tumbling for up to 24 hours. The amount of dissolved solid was determined for each sample.
SMILES,Purity [1] [%],Solubility [2] [mg/mL],"Solubility ([2]; thermodynamic from solid, read-out: Solubility) [mg/mL]"
"CC[C@@H]1CN(C(=O)NCC(F)(F)F)C[C@@H]1c1cnc2cnc3[nH]ccc3n12.O=C(O)c1ccc(O)c(O)c1 [3,4-dihydroxybenzoic acid cocrystal]",103.9,11.3 ± 0.2,–
CC(=O)Nc1ccc(C(=O)O)cc1.CC[C@@H]1CN(C(=O)NCC(F)(F)F)C[C@@H]1c1cnc2cnc3[nH]ccc3n12 [4-acetamidobenzoic acid cocrystal],100.0,2.53 ± 0.03,–
CCC1CN(C(=O)NCC(F)(F)F)CC1c1cnc2cnc3[nH]ccc3n12.O=C(O)c1cc(O)c(O)c(O)c1 (stereo not drawn) [gallic acid cocrystal],103.8,5.13 ± 0.05,–
CC[C@@H]1CN(C(=O)NCC(F)(F)F)C[C@@H]1c1cnc2cnc3[nH]ccc3n12.O=C(O)c1ccc(O)c([N+](=O)[O-])c1 [4-hydroxy-3-nitrobenzoic acid cocrystal],99.9,1.47 ± 0.01,–

# Next, values leading:
Purity [1] [%],Solubility [2] [mg/mL],"Solubility ([2]; thermodynamic from solid, read-out: Solubility) [mg/mL]",SMILES
102.7,4.29 ± 0.05,–,CC[C@@H]1CN(C(=O)NCC(F)(F)F)C[C@@H]1c1cnc2cnc3[nH]ccc3n12.O=C(O)c1ccc(O)cc1 [4-hydroxybenzoic acid cocrystal]
100.2,–,0.37 ± 0.004,"CC[C@@H]1CN(C(=O)NCC(F)(F)F)C[C@@H]1c1cnc2cnc3[nH]ccc3n12 [Upadacitinib Form I, (3S,4R)-3-ethyl-4-(3H-imidazo[1,2-a]pyrrolo[2,3-e]pyrazin-8-yl)-N-(2,2,2-trifluoroethyl)pyrrolidine-1-carboxamide, reference compound]"
